Laboratory results: publication PMC12624906, “Discovery of benzyl carbamate inhibitors of coronavirus M^pro enzymes from a legacy collection of cysteine protease inhibitors” (Journal of Enzyme Inhibition and Medicinal Chemistry, 2025)
Where “and” joins values, the source holds several entries; their conditions need not be identical. Identical values can stand only once. Like-named read-outs stand apart in the source and are kept apart here.

Assays:
[1] = biological target: T1, human cathepsin L (hCatL) (Homo sapiens, UniProt P07711); set-up: method as in PMID 37435731; settings: E-64 data reported previously; cited from earlier work
T1 construct: purchased R&D Systems 952-CY-010

[2] = biological target: SARS-CoV-2 PL^pro (Severe acute respiratory syndrome coronavirus 2, UniProt P0DTD1); assay: biochemical; settings: 15-min pre-incubation, one assay in triplicate (n = 3), mean ± SE
[3] = biological target: T2, SARS-CoV-2 M^pro (Severe acute respiratory syndrome coronavirus 2, UniProt P0DTD1); assay: biochemical; settings: compound at 10 μM, 15-min pre-incubation, relative to DMSO control, mean ± SE; for % inhibition of SARS-CoV-2 M^pro activity: 10 µM
[4] = biological target: SARS-CoV M^pro (Severe acute respiratory syndrome coronavirus, UniProt P0C6X7); assay: biochemical; assay type: biochemical; settings: for IC50: n = 6
[5] = biological target: T1, human cathepsin L (hCatL); assay: hCatL inhibition assay (Z-Phe-Arg-AMC); assay type: biochemical; settings: 15-min pre-incubation; pH 5.5; n = 6
[6] = biological target: MERS-CoV M^pro (Middle East respiratory syndrome-related coronavirus, UniProt K9N7C7); assay: biochemical; assay type: biochemical; settings: for IC50: n = 6
[7] = biological target: T2, SARS-CoV-2 M^pro; assay: biochemical; assay type: biochemical; settings: for IC50: 15-min pre-incubation, two independent assays in triplicate (n = 6)
[8] = in vitro; settings: mouse
[9] = biological target: T2, SARS-CoV-2 M^pro; assay: biochemical; assay type: biochemical; settings: for fold decrease in IC50 with 15-min pre-incubation vs without: SARS-CoV-2 M^pro, 15-min vs 0-min pre-incubation
[10] = in vitro; settings: green monkey
[11] = biological target: T2, SARS-CoV-2 M^pro; assay type: biochemical; settings: pre-incubated 30 min at 10-fold IC50 with 100× enzyme, diluted 100-fold to 0.1-fold IC50; monitored 2 h
[12] = test system: L929 cells; set-up: method as in PMID 39072124; settings: ribavirin data reported previously; cited from earlier work
[13] = test system: Vero cells; set-up: method as in PMID 38194508; settings: ribavirin data reported previously; cited from earlier work
[14] = 15-min pre-incubation before substrate, value per independent assay (Figure 3, black), read-out: IC50 SARS-CoV-2 M^pro, 15-min pre-incubation
[15] = 30-min pre-incubation before substrate, value per independent assay (Figure 3, violet), read-out: IC50 SARS-CoV-2 M^pro, 30-min pre-incubation
[16] = no pre-incubation before substrate, value per independent assay (Figure 3, teal), read-out: IC50 SARS-CoV-2 M^pro, 0-min pre-incubation

MERS-CoV M^pro, sequence (K9N7C7 3248-3553 limits assumed): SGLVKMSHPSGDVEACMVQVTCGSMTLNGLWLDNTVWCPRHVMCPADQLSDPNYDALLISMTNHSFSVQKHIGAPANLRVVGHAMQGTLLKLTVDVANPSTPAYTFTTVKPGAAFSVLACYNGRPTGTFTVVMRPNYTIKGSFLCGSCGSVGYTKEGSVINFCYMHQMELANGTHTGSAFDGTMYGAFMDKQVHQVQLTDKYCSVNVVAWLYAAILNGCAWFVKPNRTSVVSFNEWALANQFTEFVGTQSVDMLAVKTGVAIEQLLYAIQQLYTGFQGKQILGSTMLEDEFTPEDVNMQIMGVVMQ
T1 sequence (P07711 114-333): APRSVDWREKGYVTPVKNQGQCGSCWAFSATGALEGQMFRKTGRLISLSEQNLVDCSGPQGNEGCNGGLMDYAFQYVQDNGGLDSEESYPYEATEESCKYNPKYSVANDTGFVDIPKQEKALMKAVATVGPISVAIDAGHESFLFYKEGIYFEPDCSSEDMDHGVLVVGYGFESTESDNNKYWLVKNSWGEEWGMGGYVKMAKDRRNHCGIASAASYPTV

SMILES | inhibition at 10 µM [2] [%] | inhibition at 10 µM [3] [%] | IC50 [4] | IC50 [5] [µM] | IC50 [6] [µM] | IC50 [7] [µM] | CC50 at 48 h [8] [µM] | IC50 [9, 14] | IC50 [9, 15] | fold decrease in IC50 with 15-min pre-incubation vs without [9] [fold] | IC50 [9, 16] | CC50 at 48 h [10] [µM] | inhibition after rapid dilution (reversibility) [11] | further results
CC(C)C[C@H](NC(=O)[C@H]1O[C@@H]1C(=O)O)C(=O)NCCCCN=C(N)N [Compound E-64] |  |  |  |  |  |  |  |  |  |  |  |  |  | IC50 [1]: 0.008 ± 0.001 µM
O=C(NC(CCc1ccccc1)C(O)c1cc1=O)C(Cc1ccccc1)NC(=O)N1CCOCC1 (centres unmarked) [Compound 2a] | 5.2 ± 1.23 | 54 ± 1.34 | > 10 µM | 0.184 ± 0.003 | > 10 | 8.12 ± 0.04 |  |  |  |  |  |  |  | 
O=C(N[C@H](CCc1ccccc1)C(=O)CS(=O)(=O)c1ccccc1)[C@H](Cc1ccccc1)NC(=O)N1CCOCC1 [Compound 4a] | 1.56 ± 4.68 | 52.5 ± 3.61 | > 10 µM | 10.7 ± 0.24 | > 10 | 8.72 ± 0.54 |  |  |  |  |  |  |  | 
COC(=O)/C=C/C(=O)[C@@H](C)NC(=O)[C@H](Cc1ccccc1)NC(=O)OCc1ccccc1 [Compound 1a] | 0 | > 95 | 0.699 ± 0.0125 µM | 0.319 ± 0.001 | 3.79 ± 0.64 | 0.415 ± 0.018 | 73.5 ± 4.34 | 0.433 µM and 0.397 µM | 0.249 µM and 0.301 µM | ~2 | 1.02 µM and 1.16 µM | 17.2 ± 0.5 | reversible inhibition | % inhibition of SARS-CoV-2 M^pro activity [3]: 96.75 ± 1.04%
C=CC(=O)[C@@H](C)NC(=O)[C@@H](Cc1ccccc1)NC(=O)OCc1ccccc1 [Compound 5a] | 6.14 ± 2.42 | > 95 | 0.11 ± 0.0173 µM | > 10 | 0.83 ± 0.0535 | 0.16 ± 0.0058 | 102 ± 2.06 | 0.154 µM and 0.166 µM | 0.103 µM and 0.115 µM | ~4 | 0.757 µM and 0.708 µM | 49 ± 3.28 | reversible inhibition | % inhibition of SARS-CoV-2 M^pro activity [3]: 100.00 ± 0.00%; IC50 hCatL [5]: inactive; fold decrease in activity against MERS-CoV M^pro compared to SARS-related M^pro enzymes [6]: ~5 fold
NC(=O)c1ncn([C@@H]2O[C@H](CO)[C@@H](O)[C@H]2O)n1 [Ribavirin, ribavirin] |  |  |  |  |  |  |  |  |  |  |  |  |  | CC50 [12]: > 100 µM; CC50 [13]: > 100 µM
CCOC(=O)C1CCN(C(=O)N[C@@H](CC(C)C)C(=O)N[C@@H](/C=C/S(=O)(=O)c2ccccc2)COc2ccccc2)CC1 [Compound 3a] | 1.84 ± 2.85 | 51.5 ± 1.38 | > 10 µM | 0.763 ± 0.079 | > 10 | 16.42 ± 0.09 |  |  |  |  |  |  |  | 
C=CC(=O)[C@H](C)NC(=O)[C@@H](Cc1ccccc1)NC(=O)OCc1ccccc1 [Compound 5b] |  | 100 | 0.073 µM and 0.0732 µM | > 10 |  | 0.128 ± 0.006 | 85.9 ± 1.69 | 0.134 µM and 0.122 µM | 0.114 µM and 0.111 µM | ~4 | 0.639 µM and 0.707 µM | 37.5 ± 2.14 | reversible inhibition | fold greater IC50 than nirmatrelvir, SARS-CoV M^pro [4]: 2.4 fold; IC50 hCatL [5]: inactive; fold less potent than nirmatrelvir, SARS-CoV-2 M^pro IC50 [7]: approximately 7 fold
